According to US20190077795A1, “ARGININE […] INHIBITORS AND USES THEREOF” (Epizyme, Inc., priority 2014, published 2019):

Assays:
human PRMT1 = target: T1, human PRMT1 (Homo sapiens, UniProt Q99873); assay: PRMT1 Biochemical Assay; conditions: peptide substrate, 3H-SAM Flashplate assay; read-out: PRMT1 IC50
T1 construct: GST-tagged PRMT1; made in house; host or cells: High Five insect cells (baculovirus, pFastBac1)
Outline: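 GST-tagged PRMT1 from baculovirus-infected cells, preincubated with compounds 30 min at room temperature in 20 mM Bicine pH 7.6, 1 mM TCEP, 0.005% BSG, 0.002% Tween 20. Reaction started with ³H-SAM plus biotinylated peptide, stopped with 300 µM cold SAM.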

[1] = test system: mono-methyl arginine in RKO cells; assay: RKO Methylation Assay, In Cell Western (ICW); assay type: cell-based; conditions: 72 hours
human PRMT6 = target: T2, human PRMT6 (Homo sapiens, UniProt Q96LA8); assay: PRMT6 Biochemical Assay; conditions: peptide substrate, 3H-SAM Flashplate assay; read-out: PRMT6 IC50
T2 construct: Flag-PRMT6-His; made in house; host or cells: HEK 293F cells (BacMam baculovirus, pFastBacMam)

human PRMT8 = human PRMT8 (Homo sapiens, UniProt Q9NR22); assay: PRMT8 Biochemical Assay; conditions: PRMT8 IC50 (uM), peptide substrate, 3H-SAM Flashplate assay
Chain of human PRMT8 (Q9NR22 whole entry): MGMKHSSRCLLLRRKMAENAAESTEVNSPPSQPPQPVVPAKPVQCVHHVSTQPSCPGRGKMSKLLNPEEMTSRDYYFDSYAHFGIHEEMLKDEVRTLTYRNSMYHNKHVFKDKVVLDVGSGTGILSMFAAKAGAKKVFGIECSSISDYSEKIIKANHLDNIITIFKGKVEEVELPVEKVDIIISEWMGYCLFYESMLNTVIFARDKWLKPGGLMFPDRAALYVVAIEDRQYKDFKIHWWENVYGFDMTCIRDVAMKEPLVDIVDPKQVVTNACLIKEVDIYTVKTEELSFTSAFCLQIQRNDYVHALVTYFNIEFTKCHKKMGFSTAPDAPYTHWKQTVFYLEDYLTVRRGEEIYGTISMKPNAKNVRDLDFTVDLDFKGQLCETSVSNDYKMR

T2 sequence (Q96LA8 with tags, fused parts or gaps): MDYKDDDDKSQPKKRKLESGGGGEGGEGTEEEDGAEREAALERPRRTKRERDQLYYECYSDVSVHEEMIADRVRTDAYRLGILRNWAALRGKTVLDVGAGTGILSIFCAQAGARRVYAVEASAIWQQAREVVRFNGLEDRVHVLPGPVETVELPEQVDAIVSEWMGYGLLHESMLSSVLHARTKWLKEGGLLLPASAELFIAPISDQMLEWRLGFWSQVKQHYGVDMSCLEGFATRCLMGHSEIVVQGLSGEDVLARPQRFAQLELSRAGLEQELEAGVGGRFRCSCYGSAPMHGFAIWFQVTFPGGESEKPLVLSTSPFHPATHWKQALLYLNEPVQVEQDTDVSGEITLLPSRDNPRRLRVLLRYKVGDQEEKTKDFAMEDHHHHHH
T1 sequence (Q99873 with tags, fused parts or gaps): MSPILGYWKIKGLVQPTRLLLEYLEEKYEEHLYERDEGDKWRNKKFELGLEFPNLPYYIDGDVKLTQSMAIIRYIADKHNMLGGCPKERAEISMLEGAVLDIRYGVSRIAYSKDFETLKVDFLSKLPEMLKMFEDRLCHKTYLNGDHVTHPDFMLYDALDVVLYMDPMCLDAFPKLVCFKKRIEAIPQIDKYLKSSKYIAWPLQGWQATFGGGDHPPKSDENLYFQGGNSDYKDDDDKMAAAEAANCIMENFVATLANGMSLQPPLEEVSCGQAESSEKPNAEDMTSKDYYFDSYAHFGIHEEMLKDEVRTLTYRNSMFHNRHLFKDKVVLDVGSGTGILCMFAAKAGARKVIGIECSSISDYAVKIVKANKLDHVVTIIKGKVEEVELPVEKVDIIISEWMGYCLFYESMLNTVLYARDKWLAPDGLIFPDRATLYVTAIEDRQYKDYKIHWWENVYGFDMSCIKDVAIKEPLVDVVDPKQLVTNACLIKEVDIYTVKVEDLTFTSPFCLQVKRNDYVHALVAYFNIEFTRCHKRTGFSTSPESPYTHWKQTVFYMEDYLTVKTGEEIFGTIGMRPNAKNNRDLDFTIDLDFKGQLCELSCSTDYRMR

SMILES | IC50 (human PRMT1) | ICW EC30 [1] | IC50 (human PRMT6) | IC50 (human PRMT8)
CNCCN(C)Cc1c[nH]nc1-c1ccc(OC(COc2ccccc2)COc2ccccc2)cc1 [Compound 146] | 7.32 nM | 1403 nM | 6.24 nM | 0.0375 µM
CNCCN(C)Cc1c[nH]nc1-c1ccc(OC2CC(OCCN3CCOCC3)C2)cc1 (stereo not shown) [Compound 147] | 111 nM | 4237 nM | 16.4 nM | 0.162 µM
CNCCN(C)Cc1c[nH]nc1-c1ccc(OCCOc2cccc(C(O)CO)c2)cc1 (stereo not shown) [Compound 148] | 8.22 nM | 8688 nM | 6.32 nM | 0.0398 µM
CNCCN(C)Cc1c[nH]nc1-c1ccc(OC2CC(OCCC(O)CO)C2)cc1 (stereo not shown) [Compound 149] | 172 nM | >20000 nM | 28.6 nM | 0.342 µM
CN(CCN)Cc1c[nH]nc1-c1ccc2c(c1)OCC(=O)N2 [Compound 152] | 65.4 nM | >20000 nM | 8.28 nM | 0.459 µM
CNCCN(C)Cc1c[nH]nc1-c1ccc(OCCOc2cccc(C)c2)cc1 [Compound 153] | 4.3 nM | 177.6 nM | 3.15 nM | 0.0133 µM
CNCCN(C)Cc1ccnn1-c1cc(OCCOC)cc(C(F)(F)F)c1 [Compound 154] | 2030 nM | >20000 nM | > 10000 nM | 8.45 µM
